In PubChem BioAssay (NCI):
Values joined by “and” are separate entries in the source; they are usually repeats but may differ in a detail not shown here. Equal entries are not always repeated.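 1) Cells in 96-well plates. 2) Compound, 48 h, 5 concentrations. 3) Linear interpolation between surrounding doses. 4) Unreached endpoint = highest concentration. GI50 is the concentration that inhibits growth by half. TGI: total growth inhibition.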 Starred links: 1 amine or outer side, 2 acyl side, 3 side chain; linkers in the order of their positions; H or OH if unused. Positions of bridges follow the written chain, without caps; N, C: chain ends. Non-standard residues stand in square brackets, D forms with d. Residues, ends and D or L forms follow the SMILES beside them. Chains are numbered I, II in the order given. Actinocin(1to9) = Cc1c2oc3c(C)ccc(C(=O)[*:2])c3nc-2c(C(=O)[*:1])c(N)c1=O; NMeV = CN[CH](C(=O)O)C(C)C; Sar = CNCC(=O)O

Assays:
Test in all cases: NCI tumour cell line growth inhibition, 48 h
CCRF-CEM leukemia = system: CCRF-CEM leukemia
DU-145 prostate = system: DU-145 prostate
MDA-MB-231 breast = system: MDA-MB-231 breast
RPMI-8226 leukemia = system: RPMI-8226 leukemia
NCI/ADR-RES ovarian = system: NCI/ADR-RES ovarian
NCI-H226 lung = system: NCI-H226 lung
MDA-N = system: MDA-N
MALME-3M melanoma = system: MALME-3M melanoma
OVCAR-4 ovarian = system: OVCAR-4 ovarian
SNB-75 CNS = system: SNB-75 CNS

| Compound | TGI (CCRF-CEM leukemia) | TGI (DU-145 prostate) | TGI (MDA-MB-231 breast) | TGI (RPMI-8226 leukemia) | TGI (NCI/ADR-RES ovarian) | TGI (NCI-H226 lung) | TGI (MDA-N) | TGI (MALME-3M melanoma) | TGI (OVCAR-4 ovarian) | TGI (SNB-75 CNS) | GI50 (CCRF-CEM leukemia) | GI50 (DU-145 prostate) | GI50 (MDA-MB-231 breast) | GI50 (MALME-3M melanoma) | GI50 (NCI/ADR-RES ovarian) | GI50 (NCI-H226 lung) | GI50 (OVCAR-4 ovarian) | GI50 (SNB-75 CNS) | GI50 (RPMI-8226 leukemia) |
| --- | --- | --- | --- | --- | --- | --- | --- | --- | --- | --- | --- | --- | --- | --- | --- | --- | --- | --- | --- |
| c1ccc(-c2nnn3c2NC2=C(CCCC2)C3c2ccccc2)cc1 (stereo not given) | 31.1 µM | 33.3 µM | 64.6 µM | 31.9 µM | 52.4 µM | > 100 µM | 32.3 µM |  |  |  |  |  |  |  |  |  |  |  |  |
| CCOC(=O)C(/C(=N/S(=O)(=O)c1cc(C)c(Cl)cc1[S-])[n+]1ccc(N(C)C)cc1)=C(/O)c1ccc([N+](=O)[O-])cc1 | 87.2 µM | > 100 µM | > 100 µM | 63.7 µM | > 100 µM | > 100 µM | > 100 µM | 40.5 µM | 88.6 µM |  |  |  |  |  |  |  |  |  |  |
| N#CC12Cc3cc4c(cc3-c3cccc(c31)CCN2C(=O)c1ccccc1)OCO4 (stereo not given) | > 100 µM |  |  | > 100 µM |  | > 100 µM |  | > 100 µM |  | 62.8 µM |  |  |  |  |  |  |  |  |  |
| O=C(O)c1ccc(C(=O)c2ccccc2C(=O)O)cc1C(=O)O | > 100 µM | > 100 µM | > 100 µM | > 100 µM | > 100 µM | > 100 µM | > 100 µM | > 100 µM | > 100 µM | > 100 µM |  |  |  |  |  |  |  |  |  |
| OC(c1ccccc1)(c1ccccc1)c1nccc2ccccc12 | 95.5 µM | > 100 µM | > 100 µM | > 100 µM | > 100 µM |  | > 100 µM | 68 µM | > 100 µM |  |  |  |  |  |  |  |  |  |  |
| Nc1c(C(=O)O)nnc2cc(Cl)c(Cl)cc12 | > 100 µM | > 100 µM | > 100 µM | > 100 µM | > 100 µM | > 100 µM | > 100 µM | > 100 µM | > 100 µM | > 100 µM |  |  |  |  |  |  |  |  |  |
| COc1ccc(C(=O)C2=NON3OC23C(=O)c2ccc(OC)cc2)cc1 (stereo not given) |  |  |  | > 50.7 µM |  | 33.3 µM |  | 25.7 µM | 16.2 µM | 43.6 µM |  |  |  |  |  |  |  |  |  |
| Cc1ccccc1N=Nc1c(O)c(S(=O)(=O)O)cc2cc(S(=O)(=O)O)ccc12 | > 100 µM | > 100 µM | > 100 µM |  | > 100 µM | > 100 µM | > 100 µM | > 100 µM | > 100 µM | > 100 µM |  |  |  |  |  |  |  |  |  |
| CN(C)c1ccc(C=Nc2ccc(Oc3ccc(Cl)cc3)c(Cl)c2)cc1 | 57.7 µM | 79 µM | 38.5 µM | 72.3 µM | 33.2 µM | 63.4 µM | 52.8 µM | 36.8 µM | 66.4 µM | 35.6 µM |  |  |  |  |  |  |  |  |  |
| COCC1CCCN1c1ccc(C=N/C(C#N)=C(\N)C#N)cc1 (stereo not given) | > 100 µM | > 100 µM | > 100 µM |  | > 100 µM | > 100 µM |  | > 100 µM | > 100 µM | 58.1 µM | 3.22 µM | 6.25 µM | 18.7 µM | 7.75 µM | > 100 µM | 4.68 µM | > 100 µM | 23.2 µM |  |
| Cc1coc2c1C[C@@]1(C)[C@H](CCC[C@@H]1C)[C@H]2O | > 100 µM | 56.3 µM | 55.9 µM | 62.3 µM | 68.3 µM | 56 µM | > 100 µM | 44.7 µM | 68.4 µM |  |  |  |  |  |  |  |  |  |  |
| CC(C)(C)OC(=O)n1c2ccccc2c2c(=O)nc(N3CCCCC3)sc21 | > 100 µM | > 100 µM | > 100 µM | > 100 µM | > 100 µM |  | > 100 µM | > 100 µM | > 100 µM | > 100 µM |  |  |  |  |  |  |  |  |  |
| O=c1ccc2nc3cc(Br)ccc3sc-2c1 | 72.5 µM |  |  |  |  | > 100 µM |  | > 100 µM | > 100 µM | > 100 µM |  |  |  |  |  |  |  |  |  |
| CC(=O)OC1CC[C@@]2(C)C(=CC[C@@H]3[C@@H]2CC[C@]2(C)Nc4nn(S(C)(=O)=O)cc4C[C@@H]32)C1 (stereo not given in full) | 38.5 µM | > 100 µM | > 100 µM | > 100 µM | > 100 µM | 92 µM | 74.5 µM | 78.6 µM |  | > 100 µM |  |  |  |  |  |  |  |  |  |
| COc1nc2[nH]ccc2c(=O)[nH]1 | > 100 µM |  |  | > 100 µM |  | 9.92 µM |  | > 100 µM | > 100 µM | > 100 µM |  |  |  |  |  |  |  |  |  |
| C[N+]1(CCC(=O)c2ccco2)CC2CCC(CC2)C1 (stereo not given) |  | > 100 µM | > 100 µM | > 100 µM | > 100 µM | > 100 µM | > 100 µM | > 100 µM | > 100 µM | > 100 µM |  |  |  |  |  |  |  |  |  |
| Cn1cnc([N+](=O)[O-])c1Sc1nc(N)nc2c1ncn2C1OC(CO)C(O)C1O (stereo not given) | > 100 µM | 66.4 µM | > 100 µM | > 95.5 µM | > 100 µM | > 89.3 µM | > 100 µM | > 100 µM | > 100 µM | > 84.9 µM |  |  |  |  |  |  |  |  |  |
| COCCNCc1ccc(-c2cc3nccc(Oc4ccc(NC(=S)NC(=O)Cc5ccc(F)cc5)cc4F)c3s2)nc1 |  |  | 4.1 µM | 5.13 µM | 5.2 µM | 6.48 µM |  |  |  |  |  |  | 1.97 µM |  | 2.02 µM | 1.98 µM |  |  | 2.04 µM |
| CC(C)(C)OC(=O)NC(CCCCNC(=O)OCc1ccccc1)C(=O)NCCNc1ccc(NCCNC(=O)C(CCCCNC(=O)OCc2ccccc2)NC(=O)OC(C)(C)C)c2c1C(=O)c1ccccc1C2=O (stereo not given) | > 100 µM | > 100 µM | 38.2 µM | > 27.4 µM | > 100 µM | > 100 µM | > 100 µM | > 100 µM | > 100 µM | 70.4 µM |  |  |  |  |  |  |  |  |  |
| OCc1cn(C(c2ccccc2)(c2ccccc2)c2ccccc2)cn1 | > 100 µM | > 100 µM | > 100 µM | > 100 µM | > 100 µM | > 100 µM | > 100 µM |  | > 100 µM | 68.5 µM |  |  |  |  |  |  |  |  |  |
| O=c1[nH]c(Nc2ccc(Cl)c(C(F)(F)F)c2)nc2nc[nH]c12 | 45.4 µM | > 100 µM | > 100 µM | > 100 µM | > 100 µM | > 100 µM | > 100 µM | > 100 µM | > 100 µM | > 100 µM |  |  |  |  |  |  |  |  |  |
| Clc1ccccc1/C=c1\nc(-c2ccccc2)n2c1nc1ccccc12 | > 100 µM | > 100 µM | 73.1 µM | > 100 µM | > 100 µM | > 100 µM | > 100 µM | > 100 µM | > 100 µM |  |  |  |  |  |  |  |  |  |  |
| Cn1c(=O)[nH]c2nncnc2c1=O | > 625 µM |  |  | 389 µM | > 625 µM | 28.7 µM |  | 119 µM | > 319 µM | 117 µM |  |  |  |  |  |  |  |  |  |
| Nc1ncnc2c1sc1nc3ccccc3n12 | > 100 µM | > 100 µM | > 100 µM | > 100 µM | > 100 µM | > 100 µM |  | > 100 µM | > 100 µM | > 51.2 µM |  |  |  |  |  |  |  |  |  |
| CCC(C)C1NC(=O)C(NC(=O)c2c3nc4c(C(=O)NC5C(=O)NC(C(C)CC)C(=O)N6CCCC6C(=O)N(C)CC(=O)N(C)C(C(C)C)C(=O)OC5C)ccc(C)c4oc-3c(C)c(=O)c2N)C(C)OC(=O)C(C(C)C)N(C)C(=O)CN(C)C(=O)C2CCCN2C1=O (stereo not given) (I: TIP[Sar][NMeV] / II: TIP[Sar][NMeV]; ester I:1-I:C, II:1-II:C; linker I:N-II:N via Actinocin(1to9); configuration not given here) | 0.0106 µM |  | 0.156 µM and 0.481 µM | 0.0322 µM | 2.63 µM |  |  | 0.0202 µM | 0.273 µM | 0.0329 µM |  |  |  |  |  |  |  |  |  |
